In US12624018B1, “Inhibitors of RIPK2 and medical uses thereof” (Odyssey Therapeutics, Inc., priority 2022, dated 2026):
Counter-ions that a name gives are not always drawn. Like-named read-outs stand apart in the source and are kept apart here.

Legend:
human NOD2 signaling = assay: Inhibition of human NOD2 signaling in HEK-Blue-hNOD2 cells (L18-MDP stimulated, SEAP reporter); assay type: cell-based; conditions: NOD2 ligand stimulation, SEAP reporter, read-out: hNOD2 IC50
Method: Materials: Human NOD32-expressing 1TEK293 cells, HEK-Blue™-hNOD2 cells, were developed by Invivogen (catalogue number: hkb-hnod2) using co-transfection of the human NOD2 gene and an optimized secreted embryonic alkaline phosphatase (SEAP) reporter gene into HTEK293 cells. The cell maintenance medium consisted of DMEM (Giboc, 21063-029), heat inactivated FBS, penicillin (100 U/mL), streptomycin (100 μg/mL), Normocin (100 μg/mL), Blasticidin (30 μg/mL), and Zeocin (100 μg/mL). HEK-Blue™-hNOD2 cells were transferred to assay medium consisting of DMEM (Giboc, 21063-029), heat inactivated FBS, penicillin (100 U/mL) and streptomycin (100 μg/mL) prior to stimulation. Stimulation with a NOD2 ligand, L18-MDP (Invivogen, catalogue number: tlrl-lmdp) activated NF-κB and AP-1 which induced the production of SEAP. Levels of SEAP were determined with HEK-Blue™ Detection (referred to as QUANTI-Blue solution), a cell culture medium that allows for real-time detection of SEAP. QUANTI-Blue solution was prepared by adding 1 mL of QB reagent and 1 mL of QB buffer to 98 mL of sterile H2O. Test compounds were prepared into a 10 mM DMSO solution and were serially diluted into 10 points using a 3-fold dilution in a 384 well plate using a TECAN EVO200.
Method: In a 384 well plate, 40 nL of test compound was dispensed using Echo550. HEK-Blue™-hNOD2 cells (Invivogen) were prepared into a cell suspension and 40 μL of the cell suspension (12500 cells per well) was dispensed into the 384 well plate. To activate NOD2 signaling, 40 nL of L18-MDP (final concentration of 0.5 ng/mL) was added and the plate was incubated at 37° C. in a CO2 incubator for 24 hours. After the 24-hour incubation, 5 μL of the induced HEK-Blue hNOD2 cell supernatant was transferred to a new 384-well plate, centrifuged, and 45 μL of QUANTI-Blue solution was added per well and incubated for 3 hours at 37° C. SEAP levels were measured using an Ensight at 620 nm. Percent inhibition of NOD2 signaling was determined using the following equation: (high control−test compound signal)/(High control−low control)×100. The reaction high control was determined using wells with DMSO, cells, L18-MDP, and QUANTI-Blue solution. The reaction low control was determined using wells with DMSO, cells, and QUANTI-Blue solution. 4-parametric curve fit was used to determine the test compound concentration that results in 50% reduction of L18-MDP-driven human NOD2 signaling.
Using the assay described above, inhibition of hNOD2 signaling was also evaluated for GSK 2983559 (Haile at al., J. Med. Chem. 2019, 62, 14, 6482-6494), a known RIPK2 kinase inhibitor: […]

RIPK2 enzyme = target: T1, RIPK2 enzyme (Homo sapiens, UniProt O43353); assay: RIPK2 inhibition (ADP-Glo Kinase Assay); assay type: biochemical; conditions: RIPK2 5 nM, ATP 150 μM, MBP substrate, read-out: RIPK2 IC50
T1 construct: purchased Carna 09-128
Outline: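 Human RIPK2 (5 nM) preincubated with compound 30 min at room temperature in 50 mM HEPES pH 7.5, 10 mM MgCl2, 2 mM DTT, 1 mM EGTA, 0.01% Brij-35, 0.05% BSA; native swine MBP as substrate. ADP formed quantified by ADP-Glo luminescence; percent inhibition relative to DMSO and no-enzyme controls.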

[1] = Homo sapiens, HEK-Blue hNOD2, HEK-Blue-hNOD2 cells

T1 sequence (O43353 1-299 limits assumed): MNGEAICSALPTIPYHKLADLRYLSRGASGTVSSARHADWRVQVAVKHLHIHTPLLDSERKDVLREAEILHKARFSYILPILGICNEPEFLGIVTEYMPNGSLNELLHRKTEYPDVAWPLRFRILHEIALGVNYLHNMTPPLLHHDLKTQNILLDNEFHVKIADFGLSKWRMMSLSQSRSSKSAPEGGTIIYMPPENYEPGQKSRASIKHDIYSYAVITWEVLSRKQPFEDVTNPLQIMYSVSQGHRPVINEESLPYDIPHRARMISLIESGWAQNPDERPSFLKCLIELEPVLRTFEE

| IC50 (human NOD2 signaling; [1]) [nM] | IC50 (RIPK2 enzyme) [nM] | IC50 (human NOD2 signaling; HEK-Blue-hNOD2 cells) [nM] | SMILES |
| --- | --- | --- | --- |
| 1.4 | < 2.5 |  | [2H]C([2H])([2H])NC(=O)c1cc2c(Oc3c(C)cc(CC(=O)Nc4cnn(C(C)(C)C)c4)cc3F)ccnc2cc1F [Compound 600, 4-(4-(2-((1-(tert-butyl)-1H-pyrazol-4-yl)amino)-2-oxoethyl)-2-fluoro-6-methylphenoxy)-7-fluoro-N-(methyl-d3)quinoline-6-carboxamide] |
| 6.7 | < 2.5 |  | CCS(=N)(=O)c1ccc2nccc(Oc3ccc(CC(=O)Nc4cnn(C56CC(C5)C6)c4)cc3C)c2c1 (single isomer, unassigned) [Compound 593, N-(1-(bicyclo[1.1.1]pentan-1-yl)-1H-pyrazol-4-yl)-2-(4-((6-(ethylsulfonimidoyl)quinolin-4-yl)oxy)-3-methylphenyl) acetamide] |
| 0.8 | < 2.5 |  | CCS(=N)(=O)c1ccc2nccc(Oc3ccc(CC(=O)Nc4cnn(C(C)(C)C)c4)c(F)c3C)c2c1 (single isomer, unassigned) [Compound 535, N-(1-(tert-butyl)-1H-pyrazol-4-yl)-2-(4-((6-(ethylsulfonimidoyl)quinolin-4-yl)oxy)-2-fluoro-3-methylphenyl) acetamide] |
| 1 | < 2.5 |  | CNC(=O)C(F)(F)c1ccc2nccc(Oc3cc(F)c(CC(=O)Nc4cnn(C(C)(C)C)c4)cc3C)c2c1 [Compound 573, 2-(4-(4-(2-((1-(tert-butyl)-1H-pyrazol-4-yl)amino)-2-oxoethyl)-5-fluoro-2-methylphenoxy)quinolin-6-yl)-2,2-difluoro-N-methylacetamide] |
|  | < 2.5 | 11 | Cc1cc(CC(=O)Nc2cnn(C(C)(C)C)c2)ccc1Oc1ccnc2ccc(S(=N)(=O)C(C)(C)C)cc12 (single isomer, unassigned) [Compound 550, N-(1-(tert-butyl)-1H-pyrazol-4-yl)-2-(3-methyl-4-((6-(2-methylpropan-2-ylsulfonimidoyl)quinolin-4-yl)oxy)phenyl) acetamide] |
| 0.8 | < 2.5 |  | COc1n[nH]cc1-c1ccc2nccc(Oc3cc(F)c(CC(=O)Nc4cnn(C(C)(C)C)c4)cc3C)c2c1 [Compound 480, N-(1-(tert-butyl)-1H-pyrazol-4-yl)-2-(2-fluoro-4-((6-(3-methoxy-1H-pyrazol-4-yl)quinolin-4-yl)oxy)-5-methylphenyl)acetamide] |
| 9.8 | < 2.5 |  | CNC(=O)Cc1ccc2nccc(Oc3cc(F)c(CC(=O)Nc4cnn(C(C)(C)C)c4)cc3C)c2c1 [Compound 567, N-(1-(tert-butyl)-1H-pyrazol-4-yl)-2-(2-fluoro-5-methyl-4-((6-(2-(methylamino)-2-oxoethyl)quinolin-4-yl)oxy)phenyl)acetamide formic acid salt] |
| 4.5 | 2.9 |  | CNC(=O)C1(c2ccc3nccc(Oc4cc(F)c(CC(=O)Nc5cnn(C(C)(C)C)c5)cc4C)c3c2)CC1 [Compound 571, 1-(4-(4-(2-((1-(tert-butyl)-1H-pyrazol-4-yl)amino)-2-oxoethyl)-5-fluoro-2-methylphenoxy)quinolin-6-yl)-N-methylcyclopropane-1-carboxamide formic acid salt] |
| 0.4 | < 2.5 |  | Cc1cc(CC(=O)Nc2cnn(C(C)(C)C)c2)c(F)cc1Oc1ccnc2ccc(-c3nc[nH]n3)cc12 [Compound 484, 2-(4-((6-(1H-1,2,4-triazol-3-yl)quinolin-4-yl)oxy)-2-fluoro-5-methylphenyl)-N-(1-(tert-butyl)-1H-pyrazol-4-yl)acetamide] |
| 2.3 | < 2.5 |  | Cc1cc(CC(=O)Nc2cnn(C(C)(C)C)c2)cc(F)c1Oc1ccnc2cc(F)c(C(N)=O)cc12 [Compound 598, 4-(4-(2-((1-(tert-butyl)-1H-pyrazol-4-yl)amino)-2-oxoethyl)-2-fluoro-6-methylphenoxy)-7-fluoroquinoline-6-carboxamide] |
| 12.4 | < 2.5 |  | Cc1cc(CC(=O)Nc2cnn(C(C)(C)C)c2)ccc1Oc1ccnc2ccc(C3(C(N)=O)CCC3)cc12 [Compound 604, 1-(4-(4-(2-((1-(tert-butyl)-1H-pyrazol-4-yl)amino)-2-oxoethyl)-2-methylphenoxy)quinolin-6-yl)cyclobutane-1-carboxamide] |
| 0.1 | < 2.5 |  | [2H]C([2H])([2H])NC(=O)c1ccc2nccc(Oc3ccc(CC(=O)Nc4cnn(C(C)(C)C)c4)cc3C)c2c1 [Compound 491, 4-(4-(2-((1-(tert-butyl)-1H-pyrazol-4-yl)amino)-2-oxoethyl)-2-methylphenoxy)-N-(methyl-d3)quinoline-6-carboxamide] |
| 3.2 | < 2.5 |  | [2H]C([2H])([2H])NC(=O)c1ccc2nccc(Oc3ccc(CC(=O)Nc4cnn(C(C)(C)C)c4)cc3C(F)F)c2c1 [Compound 574, 4-(4-(2-((1-(tert-butyl)-1H-pyrazol-4-yl)amino)-2-oxoethyl)-2-(difluoromethyl)phenoxy)-N-(methyl-d3)quinoline-6-carboxamide] |
|  | < 2.5 | 1.2 | Cc1c(Oc2ccnc3ccc(S(=N)(=O)C(C)(C)C)cc23)ccc(CC(=O)Nc2cnn(C(C)(C)C)c2)c1F (single isomer, unassigned) [Compound 539, N-(1-(tert-butyl)-1H-pyrazol-4-yl)-2-(2-fluoro-3-methyl-4-((6-(2-methylpropan-2-ylsulfonimidoyl)quinolin-4-yl)oxy)phenyl) acetamide] |
| 36 | < 2.5 |  | CNC(=O)c1ccc2nccc(Oc3c(C)cc(CC(=O)Nc4cnn(C56CC(C5)C6)c4)cc3C)c2c1 [Compound 588, 4-(4-(2-((1-(bicyclo[1.1.1]pentan-1-yl)-1H-pyrazol-4-yl)amino)-2-oxoethyl)-2,6-dimethylphenoxy)-N-methylquinoline-6-carboxamide] |
| 10.5 | 2.7 |  | Cc1cc(CC(=O)Nc2cnn(C(C)(C)C)c2)c(F)cc1Oc1ccnc2ccc(C3(C(N)=O)CC3)cc12 [Compound 570, 1-(4-(4-(2-((1-(tert-butyl)-1H-pyrazol-4-yl)amino)-2-oxoethyl)-5-fluoro-2-methylphenoxy)quinolin-6-yl)cyclopropane-1-carboxamide] |
| 10.8 | < 2.5 |  | CNC(=O)c1cc2c(Oc3cc(F)c(CC(=O)Nc4cnn(C(C)(C)C)c4)cc3C)ccnc2cc1C [Compound 564, 4-(4-(2-((1-(tert-butyl)-1H-pyrazol-4-yl)amino)-2-oxoethyl)-5-fluoro-2-methylphenoxy)-N,7-dimethylquinoline-6-carboxamide] |
| 16.1 | < 2.5 |  | Cc1cc(CC(=O)Nc2cnn(C(C)(C)C)c2)c(F)cc1Oc1ccnc2ccc(-c3c(C)ncnc3C)cc12 [Compound 526, N-(1-(tert-butyl)-1H-pyrazol-4-yl)-2-(4-((6-(4,6-dimethylpyrimidin-5-yl)quinolin-4-yl)oxy)-2-fluoro-5-methylphenyl)acetamide] |
| 2.2 | < 2.5 |  | Cc1cc(CC(=O)Nc2cnn(C(C)(C)C)c2)c(F)cc1Oc1ccnc2ccc(-c3nnc(CO)cc3C)cc12 [Compound 521, N-(1-(tert-butyl)-1H-pyrazol-4-yl)-2-(2-fluoro-4-((6-(6-(hydroxymethyl)-4-methylpyridazin-3-yl)quinolin-4-yl)oxy)-5-methylphenyl)acetamide] |
| 8 | < 2.5 |  | [2H]C([2H])([2H])NC(=O)c1ccc2nccc(Oc3cc(F)c(CC(=O)Nc4cnn(C56CC(C5)C6)c4)cc3Cl)c2c1 [Compound 511, 4-(4-(2-((1-(bicyclo[1.1.1]pentan-1-yl)-1H-pyrazol-4-yl)amino)-2-oxoethyl)-2-chloro-5-fluorophenoxy)-N-(methyl-d3)quinoline-6-carboxamide] |
|  | < 2.5 | 0.7 | Cc1c(Oc2ccnc3ccc(S(=N)(=O)C4CC4)cc23)ccc(CC(=O)Nc2cnn(C34CC(C3)C4)c2)c1F (single isomer, unassigned) [Compound 527] |
